From patent US8653304B2, “2,3-dihydro-1H-indene-2-yl urea derivative and pharmaceutical application of same” (Toray Industries, Inc., priority 2009, dated 2014)

Assays:
TNFα production = assay: Cytokine production suppressing activity using human whole blood (LPS stimulation); format: cell-based; settings: LPS 200 ng/mL, 37° C., 5 hours
Description: Using human whole blood, the inhibitory action of Compound (I) on the TNFα production by LPS stimulation was studied by a method partially modified from the method described in Journal of Medicinal Chemistry (2003, Vol. 46, pp. 4676-4686).
A solution of each test compound in 100% DMSO and human blood were mixed in a 96-well flat-bottom plate. Thereafter, LPS (Final Concentration: 200 ng/mL) was added, and the resulting mixture was allowed to react at 37° C. for 5 hours (the final concentration of DMSO was 0.2%). After the reaction, the resultant was centrifuged for 20 minutes at room temperature, and the supernatant was collected. For the measurement of the TNFα amount in the supernatant, a human cytokine kit (CIS bio international) was used. As a comparative control compound, Comparative Compound 2 was used.

human p38 MAPK α = human p38 MAPK α (Homo sapiens (Human), UniProt Q16539); assay: Evaluation of p38 MAPK inhibitory activity (Alpha Screen, ATF2 phosphorylation); format: biochemical; settings: p38α/SAPK2a 1.5 nM, ATP 100 μM, biotinylated ATF2 30 nM
Sequence of human p38 MAPK α (Q16539 whole entry): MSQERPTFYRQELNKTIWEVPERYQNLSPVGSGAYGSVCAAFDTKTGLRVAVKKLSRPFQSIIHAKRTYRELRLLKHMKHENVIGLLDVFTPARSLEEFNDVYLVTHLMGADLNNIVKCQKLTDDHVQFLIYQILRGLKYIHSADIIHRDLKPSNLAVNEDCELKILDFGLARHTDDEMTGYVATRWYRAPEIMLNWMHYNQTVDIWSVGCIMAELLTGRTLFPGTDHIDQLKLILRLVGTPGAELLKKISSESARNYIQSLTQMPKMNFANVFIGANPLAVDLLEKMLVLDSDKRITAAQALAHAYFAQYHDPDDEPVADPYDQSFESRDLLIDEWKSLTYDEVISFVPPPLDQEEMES
Description: Using human p38 MAPK α, the p38 MAPK inhibitory activity of Compound (I) was studied by a method partially modified from the method described in Current Medicinal Chemistry (2004, No. 11, pp. 721-730).
A solution of each test compound solution in 100% DMSO and a p38α/SAPK2a solution (Final Concentration: 1.5 nM) (Invitrogen) were added to a 384-well plate, and then the plate was incubated at room temperature in a dark place for 1 hour. Thereafter, ATP (Final Concentration: 100 μM), which is a phosphate donor, and biotinylated ATF2 (Final Concentration: 30 nM) (upstate), which is a substrate, were added, and the resulting mixture was allowed to react at room temperature in a dark place for 1 hour (the final concentration of DMSO was 0.25%). After the reaction, an anti-phosphorylated ATF2 antibody (Final Concentration: 1 nM) (Cell Signaling), anti-IgG acceptor beads (Final Concentration: 20 μg/mL) (PerkinElmer) and streptavidin donor beads (Final Concentration: 20 μg/mL) (PerkinElmer) were added, and the resultant was incubated at room temperature in a dark place for 1 hour. Using a microplate analyzer (Fusion-α, Packard) in Alpha Screen method (Amplified Luminescent Proximity Homogeneous Assay), the light emission was detected. The IC50 value of each compound was calculated by sigmoidal dose-response regression using Prism 4.02 (GraphPad Software, Inc.).

[1] = Pharmacokinetic evaluation in mouse (oral); format: in vivo; settings: male; BALB/c mouse, oral 0.8 mg/kg, plasma
Description: Each test compound was dissolved in 10% HP-β-CD (Nihon Shokuhin Kako Co., Ltd.) to prepare a solution to be administered (0.08 mg/mL, as a solution to be administered for oral administration). To each BALB/c mouse (male, 7-week old, Charles River Laboratories Japan, Inc.), each compound was orally administered at a dose of 0.8 mg/kg. Blood was collected from the jugular vein or heart with time up to 24 hours after the administration. The obtained blood was centrifuged to collect blood plasma. The blood plasma was pretreated by methanol extraction method, and the concentration of the compound was analyzed by LC/MS/MS (ESI positive mode).
In this table, Cmax represents a maximum plasma concentration; and AUC0-∞ represents an area under the curve of the plasma concentration of the compound from after the compound administration to infinite time.

ICR mouse = assay: Evaluation of hepatotoxicity in mouse (plasma AST); format: in vivo; settings: oral 500 mg/kg, plasma on the day after administration
Description: Compound (I) was suspended in 0.5% methylcellulose (Wako Pure Chemical Industries, Ltd.) to prepare a 50 mg/mL solution to be administered. To each ICR mouse (male, 7-week old, Charles River Laboratories Japan, Inc.), each compound was orally administered at a dose of 500 mg/kg. On the day after the administration, blood was collected from the posterior vena cava, and the obtained blood was centrifuged to collect blood plasma. AST (aspartate aminotransferase) value, which is a marker of hepatic disorders in blood plasma, was measured with a biochemistry automatic analyzer (Hitachi 7070, Hitachi, Ltd.). Comparative Compound 4 was suspended in 0.5% sodium carboxymethylcellulose (Wako Pure Chemical Industries, Ltd.) before use.

SMILES	IC50 (TNFα production) [µM]	IC50 (human p38 MAPK α) [µM]	further results
COc1cccc2c1C[C@@H](NC(=O)Nc1cc(C(C)(C)C)cc([C@H](O)C(F)(F)F)c1OC)[C@H]2O (single isomer, unassigned) [Compound 52b]	0.109	0.024	
COc1c(NC(=O)N[C@@H]2Cc3c(F)cccc3[C@@H]2O)cc(N2CCOCC2)cc1[C@H](O)C(F)(F)F (single isomer, unassigned) [Compound 84b]	0.115	0.016	
CCC(C)(C)c1cc(NC(=O)N[C@@H]2Cc3ccccc3[C@@H]2O)c(OC)c([C@H](O)C(F)(F)F)c1 (single isomer, unassigned) [Compound 123b]		0.029	
COc1c(NC(=O)NC2Cc3ccccc3C2)cc(C(C)(C)C)cc1C(O)C(F)(F)F (stereo not drawn) [Comparative Compound 1, 1-(5-tert-butyl-2-methoxy-3-(2,2,2-trifluoro-1-hydroxyethyl)phenyl)-3-(2,3-dihydro-1H-indene-2-yl)urea, reference compound]		0.117	
COc1c(CO)cc(C(C)(C)C)cc1NC(=O)NC1Cc2ccccc2C1 [Comparative Compound 2, 1-(5-tert-butyl-3-(hydroxymethyl)-2-methoxyphenyl)-3-(2,3-dihydro-1H-indene-2-yl)urea]	5.19		AUC(0-inf) [1]: 116 ng·h/mL; Cmax [1]: 79.7 ng/mL
Cc1ccc(-n2nc(C(C)(C)C)cc2NC(=O)Nc2ccc(OCCN3CCOCC3)c3ccccc23)cc1 [Comparative Compound 4, 1-(3-tert-butyl-1-p-tolyl-1H-pyrazol-5-yl)-3-(4-(2-morpholinoethoxy)naphthalen-1-yl)urea, reference compound]			AST value (ICR mouse): 145 U/L
C[S+]([O-])c1ccc(-c2nc(-c3ccncc3)c(-c3ccc(F)cc3)[nH]2)cc1 (stereo not drawn) [Comparative Compound 5, 4-(4-(4-fluorophenyl)-2-(4-(methylsulfinyl)phenyl)-1H-imidazol-5-yl)pyridine]			AUC(0-inf) [1]: 59.8 ng·h/mL; Cmax [1]: 11.4 ng/mL
COc1c(CO)cc(C(C)(C)C)cc1NC(=O)N[C@@H]1Cc2c(F)cccc2[C@@H]1O [Compound 3, 1-(5-tert-butyl-3-(hydroxymethyl)-2-methoxyphenyl)-3-((1S,2R)-4-fluoro-1-hydroxy-2,3-dihydro-1H-indene-2-yl)urea]	0.235		
COc1c(NC(=O)N[C@@H]2Cc3ccccc3[C@@H]2O)cc(C(C)(C)C)cc1C(N)C(F)(F)F (stereo partly drawn) [Compound 47b, 1-(3-(1-amino-2,2,2-trifluoroethyl)-5-tert-butyl-2-methoxyphenyl)-3-((1S,2R)-1-hydroxy-2,3-dihydro-1H-indene-2-yl)urea]		0.018	
COc1c(NC(=O)N[C@H]2Cc3ccc(F)cc3[C@H]2O)cc(C(C)(C)C)cc1[C@@H](O)C(F)(F)F [Compound 60b, 1-(5-tert-butyl-2-methoxy-3-((R)-2,2,2-trifluoro-1-hydroxyethyl)phenyl)-3-(cis-6-fluoro-1-hydroxy-2,3-dihydro-1H-indene-2-yl)urea]	0.182		
